Assay results published in patent US20250066864A1, “METHODS FOR IDENTIFYING ADAR1 INHIBITORS, AND COMPOSITIONS AND METHODS OF USE IN TREATING CANCER” (The Wistar Institute of Anatomy and Biology, priority 2021, published 2025).
pIC50: −log10 of the molar value. Where two headings read alike, the source gives them in different places.

Target: T1, ADAR1p110 (Homo sapiens, UniProt P55265)
T1 construct: HAT (N); FLAG (alternative preparation, not on the same molecule as HAT) (N); made in house; host or cells: Sf9 insect cells, baculovirus
T1 sequence (P55265 1-931 isoform P55265-5): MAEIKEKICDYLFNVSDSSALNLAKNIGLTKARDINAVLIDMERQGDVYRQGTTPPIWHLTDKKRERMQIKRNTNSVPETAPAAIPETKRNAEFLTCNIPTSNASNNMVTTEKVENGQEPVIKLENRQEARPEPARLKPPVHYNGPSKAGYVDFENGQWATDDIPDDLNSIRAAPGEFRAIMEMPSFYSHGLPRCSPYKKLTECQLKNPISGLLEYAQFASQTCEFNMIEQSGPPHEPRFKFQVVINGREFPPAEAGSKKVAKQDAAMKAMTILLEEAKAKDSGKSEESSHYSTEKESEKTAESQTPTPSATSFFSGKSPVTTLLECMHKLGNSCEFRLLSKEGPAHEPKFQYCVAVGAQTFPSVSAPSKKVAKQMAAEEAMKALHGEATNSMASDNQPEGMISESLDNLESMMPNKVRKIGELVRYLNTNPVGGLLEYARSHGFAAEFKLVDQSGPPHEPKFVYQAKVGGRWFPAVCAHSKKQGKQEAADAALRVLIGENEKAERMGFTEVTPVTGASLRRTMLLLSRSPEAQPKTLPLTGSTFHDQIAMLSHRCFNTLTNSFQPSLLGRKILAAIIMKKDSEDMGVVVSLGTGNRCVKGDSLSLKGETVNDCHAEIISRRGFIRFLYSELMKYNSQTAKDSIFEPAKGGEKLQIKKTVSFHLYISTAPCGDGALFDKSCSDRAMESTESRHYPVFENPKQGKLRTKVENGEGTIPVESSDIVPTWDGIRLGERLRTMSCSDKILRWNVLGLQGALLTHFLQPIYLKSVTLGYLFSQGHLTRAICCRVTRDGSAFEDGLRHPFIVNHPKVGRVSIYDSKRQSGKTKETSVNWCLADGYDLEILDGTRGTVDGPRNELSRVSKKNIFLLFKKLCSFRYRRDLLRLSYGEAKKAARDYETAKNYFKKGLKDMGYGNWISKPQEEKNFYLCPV
Experiment: in vitro editing assay with recombinant ADAR1p110 and dsRNA or DNA:RNA substrates
Type: biochemical
Procedure: FIG. 26A-FIG. 26B show determination of IC50 by in vitro editing assay. In vitro editing assay using purified ADAR1p110 protein and two different substrates, matched (left) and mismatched (right) dsRNAs, was conducted in the presence of varying concentrations of compound #1 (FIG. 26A) or #13 (FIG. 26B) in order to estimate IC50 values for these compounds. In vitro editing was carried out using HAT-ADAR1p110 or HAT-ADAR2 recombinant protein (10 nM) and two different dsRNA substrates carrying a part of the CDK13 gene sequence (5 nM) at 37° C. for 2 hrs as described previously (12). Compounds were dissolved in 100% DMSO. The in vitro assay contained DMSO at final concentration of 16%.
The in vitro editing reaction mixture, containing 5 nM of telomere RNA:RNA duplex substrates and 75 nM of HAT-ADAR1p110-WT, FLAG-ADAR1p110-WT, or HA-ADAR1p110-EAA protein, was incubated at 37° C. for 2 h in in vitro editing buffer I (20 mM HEPES-KOH pH 7.5, 100 mM NaCl, 0.01% NP-40, 5% glycerol, 1 mM DTT). For editing of RNA:DNA hybrid substrates, in vitro editing buffer II (20 mM HEPES-KOH pH 7.5, 20 mM NaCl, 0.01% NP-40, 5% glycerol, 1 mM DTT) was used. Edited RNA or DNA strands were purified using Dynabeads MyOne Streptavidin C1 (Thermo Fisher Scientific). To remove opposite RNA or DNA strands, rNase H (NEB) or TURBO dNase (Thermo Fisher Scientific) was used, respectively. For sequencing of edited substrates, reverse transcription-PCR was carried out for RNA strands, while PCR was carried out for DNA strands. RT reactions were carried out using SuperScript III Reverse Transcriptase (Thermo Fisher Scientific), and PCR reactions were performed using Platinum Taq DNA polymerase (Thermo Fisher Scientific). PCR products were sequenced using a specific sequencing primer, and the ratio of A and G peaks in the chromatograms were analyzed by CodonCode Aligner (CodonCode Corporation).
The 54 compounds identified in the high-throughput screen were further tested in the in vitro editing assay described in Examples 1 and 2. The in vitro editing reaction mixture, containing 5 nM of telomere RNA:RNA duplex substrates and 75 nM of HAT-ADAR1p110-WT, FLAG-ADAR1p110-WT, or HA-ADAR1p110-EAA protein, was incubated at 37° C. for 2 h in in vitro editing buffer I (20 mM HEPES-KOH pH 7.5, 100 mM NaCl, 0.01% NP-40, 5% glycerol, 1 mM DTT) with 10 microM test compound. For editing of RNA:DNA hybrid substrates, in vitro editing buffer II (20 mM HEPES-KOH pH 7.5, 20 mM NaCl, 0.01% NP-40, 5% glycerol, 1 mM DTT) was used. Edited RNA or DNA strands were purified using Dynabeads MyOne Streptavidin C1 (Thermo Fisher Scientific). To remove opposite RNA or DNA strands, Rnase H (NEB) or TuRBO Dnase (Thermo Fisher Scientific) was used, respectively. For sequencing of edited substrates, reverse transcription-PCR was carried out for RNA strands, while PCR was carried out for DNA strands. RT reactions were carried out using SuperScript III Reverse Transcriptase (Thermo Fisher Scientific), and PCR reactions were performed using Platinum Taq DNA polymerase (Thermo Fisher Scientific). PCR products were sequenced using a specific sequencing primer, and the ratio of A and G peaks in the chromatograms were analyzed by CodonCode Aligner (CodonCode Corporation).

pIC50 (DNA:RNA mismatched hybrid substrate, read-out: IC50 estimated by in vitro editing assay, DNA:mmRNA): 4.00 to 4.52
pIC50 (dsRNAs (matched, mismatched) and DNA:RNA hybrids, read-out: IC50 values for ADAR1p110): 4.40 to 5.15
pIC50 (matched dsRNA substrate, read-out: IC50 estimated by in vitro editing assay, RNA:RNA): 5.52
pIC50 (mismatched dsRNA substrate, adenosine position 2, read-out: IC50 estimated by in vitro editing assay, RNA:mmRNA, Position 2): 4.68
pIC50 (mismatched dsRNA substrate, adenosine position 5, read-out: IC50 estimated by in vitro editing assay, RNA:mmRNA, Position 5): 5.09
pIC50 (mismatched dsRNA substrate, adenosine position 6, read-out: IC50 estimated by in vitro editing assay, RNA:mmRNA, Position 6): 5.42
Structure (SMILES): N#Cc1ccc(NC(=O)c2sc3ccccc3c2Cl)cc1 [Compound #13, 3-chloro-N-(4-cyanophenyl)-1-benzothiophene-2-carboxamide]
inhibition of editing of A:U matched dsRNA (matched dsRNA substrate, FIG. 25C, 10 microM test compound): preferentially inhibited matched adenosines
